Measured values taken from patent US6013647A, “Benzoxazinedione derivatives, method of producing them and uses thereof” (Gruenenthal GmbH, priority 1997, dated 2000).
Where a SMILES comes first, the peptide text is derived from it. [ ]: non-standard residue; d: D form. Orn(N5-OH,N5-Ac) = CC(=O)N(O)CCC[C@H](N)C(=O)O

Key:
E. coli = conditions: literature; cited from earlier work
E. coli AB 2847 = assay: Siderophore efficacy, growth promotion of indicator mutant (DIN 58 940); type: cell-based; conditions: test substances 5 μg/test plate
Text: (§1) The promotion of growth can be ascertained after the addition of the test substances as external siderophores. In the indicator mutants, the synthesis of the respective siderophores, e.g. pyoverdin, pyochelin, enterobactin, aerobactin or yersiniabactin, or the biosynthesis of aromatic compounds, is blocked, or there is a lack of receptors for enterobactin, pyochelin or pyoverdin and for other important components for the bacterial transport of iron (e.g. the membrane proteins Cir, Fiu, FepA and the TonB protein also). Under conditions where there is a lack of iron, these mutants therefore cannot grow or can only grow in a very retarded manner. In particular, the following indicator mutants were used: Pseudomonas aeruginosa PAO 6609, K 407, E. coli AB 2847, Salmonella typhimurium enb-7, TA 2700, and Yersinia enterocolitica WAH 5030. The controls used were ferrioxamine E for the Pseudomonas strains, ferrioxamine G for the Salmonella strains, and ferrichrome for the E. coli strains. The test substances were each employed in an amount of 5 μg/test plate.

[1] = tested on: Salmonella typhimurium enb-7; assay: as above; type: cell-based; conditions: Salmonella enb-7; test substances 5 μg/test plate
Text: as §1

[2] = tested on: Pseudomonas aeruginosa PAO 6609; assay: as above; type: cell-based; conditions: Pseud. aeruginosa PAO 6609; test substances 5 μg/test plate
Text: as §1

[3] = tested on: Salmonella typhimurium TA 2700; assay: as above; type: cell-based; conditions: Salmonella TA 2700; test substances 5 μg/test plate
Text: as §1

[4] = tested on: Yersinia enterocolitica WAH 5030; assay: as above; type: cell-based; conditions: Y. enterocol. WAH 5030; test substances 5 μg/test plate
Text: as §1

[5] = e.g. thalassaemia; cited from earlier work
B. subtilis = conditions: literature; cited from earlier work

Molecule: O=C(N[C@H]1COC(=O)[C@@H](NC(=O)c2cccc(O)c2O)COC(=O)[C@@H](NC(=O)c2cccc(O)c2O)COC1=O)c1cccc(O)c1O [enterobactin]
- siderophore activity (E. coli): siderophore for E. coli

Molecule: COC(=O)Oc1cccc2c(=O)n(CC(=O)O)c(=O)oc12 [substance 1, (8-methoxycarbonyloxy-2,4-dioxobenzoxazin-3-yl)-acetic acid]
- Growth areas (diameter) of siderophore indicator strain (E. coli AB 2847): 15 mm
- Growth areas (diameter) of siderophore indicator strain [1]: 18 mm
- Growth areas (diameter) of siderophore indicator strain [2]: 0 mm
- Growth areas (diameter) of siderophore indicator strain [3]: 13 mm

Molecule: COC(=O)Oc1cccc2c(=O)n([C@@H](C)C(=O)O)c(=O)oc12 [substance 7, 2-L-(8-methoxycarbonyloxy-2,4-dioxobenzoxazin-3-yl)-propionic acid]
- Growth areas (diameter) of siderophore indicator strain (E. coli AB 2847): 0 mm
- Growth areas (diameter) of siderophore indicator strain [1]: 10 mm
- Growth areas (diameter) of siderophore indicator strain [2]: 0 mm
- Growth areas (diameter) of siderophore indicator strain [3]: 0 mm

Molecule: C[C@H](NC(=O)Cn1c(=O)oc2c(O)cccc2c1=O)C(=O)O [substance 4, (8-hydroxy-2,4-dioxobenzoxazin-3-yl)-acetyl-L-alanine]
- Growth areas (diameter) of siderophore indicator strain (E. coli AB 2847): 0 mm
- Growth areas (diameter) of siderophore indicator strain [1]: 14 mm
- Growth areas (diameter) of siderophore indicator strain [2]: 0 mm
- Growth areas (diameter) of siderophore indicator strain [3]: 0 mm

Molecule: O=C(N[C@@H](CO)C(=O)O)c1cccc(O)c1O [N-(2,3-dihydroxybenzoyl)-L-serine]
- siderophore activity (E. coli): effective as a siderophore

Molecule: ferrioxamine E [reference compound]
- Growth areas (diameter) of siderophore indicator strain [4]: 40 mm
- Growth areas (diameter) of siderophore indicator strain [2]: 35 mm

Molecule: CC(=O)N(O)CCCCCNC(=O)CCC(=O)N(O)CCCCCNC(=O)CCC(=O)N(O)CCCCCN [desferrioxamine B]
- use in diseases caused by an excess of iron [5]: successfully used in diseases which are caused by an excess of iron

Molecule: COC(=O)Oc1cccc2c(=O)n(CC(=O)NCC(=O)O)c(=O)oc12 [substance 2, (8-methoxycarbonyloxy-2,4-dioxobenzoxazin-3-yl)-acetyl-glycine]
- Growth areas (diameter) of siderophore indicator strain (E. coli AB 2847): 10 mm
- Growth areas (diameter) of siderophore indicator strain [1]: 22 mm
- Growth areas (diameter) of siderophore indicator strain [2]: 13 mm
- Growth areas (diameter) of siderophore indicator strain [3]: 21 mm

Molecule: O=C(O)CNC(=O)c1cccc(O)c1O [N-(2,3-dihydroxybenzoyl)glycine]
- siderophore activity (B. subtilis): siderophore for B. subtilis

Molecule: ferrioxamine G [reference compound]
- Growth areas (diameter) of siderophore indicator strain [1]: 38 mm
- Growth areas (diameter) of siderophore indicator strain [3]: 20 mm

Molecule: CC(=O)N([O-])CCC[C@@H]1NC(=O)CNC(=O)CNC(=O)CNC(=O)[C@H](CCCN([O-])C(C)=O)NC(=O)[C@H](CCCN([O-])C(C)=O)NC1=O.[Fe+3] [ferrichrome, reference compound] (cyclo(GGG[Orn(N5-OH,N5-Ac)][Orn(N5-OH,N5-Ac)][Orn(N5-OH,N5-Ac)]))
- Growth areas (diameter) of siderophore indicator strain (E. coli AB 2847): 23 mm

Molecule: COC(=O)Oc1cccc2c(=O)n(N=Cc3ccc(C(=O)O)cc3)c(=O)oc12 [substance 9, 4-[(8-methoxycarbonyloxy-2,4-dioxobenzoxazin-3-yl-imino)-methyl]-benzoic acid]
- Growth areas (diameter) of siderophore indicator strain (E. coli AB 2847): 24 mm
- Growth areas (diameter) of siderophore indicator strain [1]: 0 mm
- Growth areas (diameter) of siderophore indicator strain [2]: 0 mm
- Growth areas (diameter) of siderophore indicator strain [3]: 16 mm
